Experimental data reported in paper PMC8745299, “Generation of Lasso Peptide-Based ClpP Binders” (International Journal of Molecular Sciences, 2021).
Several values for one entry are separate records, joined by “and”; a condition that tells them apart may be missing. Identical values can stand only once. Like-named read-outs stand apart in the source and are kept apart here. Each block holds one compound with its values, some of them ahead of it. Bridge positions count the residues as written; N and C are the ends. Square brackets hold non-standard residues; d marks the D form. Peptide text beside a SMILES is read from it. * marks the point of attachment. Phe(3,5-F2) = N[C@@H](Cc1cc(F)cc(F)c1)C(=O)O; Pro(4R-Me) = C[C@H]1CN[C@H](C(=O)O)C1; Propanoyl(3-cHex) = O=C(CCC1CCCCC1)*; NMeA = CN[C@@H](C)C(=O)O

Tests used:
[1] = biological target: T1, SaClpP (Staphylococcus aureus, UniProt Q2G036); experiment: Peptide (Suc-LY-AMC) degradation by SaClpP in destabilizing Tris buffer pH 8; type: biochemical, S. aureus; parameters: Strep-tag (C); made in house; host or cells: E. coli BL21 (DE3); details: Tris buffer pH 8; for EC50: 32 °C
T1 sequence (Q2G036 1-195): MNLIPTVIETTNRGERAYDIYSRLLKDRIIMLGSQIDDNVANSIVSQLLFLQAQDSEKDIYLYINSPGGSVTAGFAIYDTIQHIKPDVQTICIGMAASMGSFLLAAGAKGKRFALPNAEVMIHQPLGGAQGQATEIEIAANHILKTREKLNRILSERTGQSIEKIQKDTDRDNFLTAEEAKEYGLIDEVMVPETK
Excerpt: (§1) In order to assess the different MccJ25 variants, we first chose S. aureus ClpP (SaClpP) as a model peptidase and performed in vitro degradation assays with the fluorogenic model peptide substrate Suc-LY-AMC. […] To investigate whether the MccJ25 variants can exert a stabilizing effect on the oligomeric structure of tetradecameric SaClpP, we conducted peptide degradation assays under destabilizing conditions employing a Tris buffer at pH 8.
This experimental setup was then used to differentiate the MccJ25 variants regarding their effect on ClpP stability. […] The apparent affinity constant was deduced from enzyme activity assays and represents the effector molecule concentration at half maximal stimulation of enzyme activity (the lower the apparent affinity constant, the higher the affinity). To exclude that 12IGF serves as a SaClpP substrate, we incubated a mixture of SaClpP and 12IGF under assay conditions for up to 260 min.
(§2) Peptide degradation assays were performed in black flat-bottom 96-well plates with a total reaction volume of 100 μL and reaction temperatures of 32 °C and 37 °C for SaClpP and BsClpP, respectively. Stock solutions of ADEP2 and MccJ25 WT or variants were dissolved in DMSO and pre-diluted to 100× of the final concentration. Accordingly, 1 μL of the respective stock solution was placed at the bottom of the wells. […] 50 μL of a 2× enzyme solution (final assay concentration: 1 μM) in activity buffer was added to the plate and incubated for 15 min at 32 °C and 37 °C for SaClpP and BsClpP activity assays, respectively. The enzyme reaction was started by addition of 49 μL of a solution of the fluorogenic model peptide substrate Suc-Leu-Tyr-AMC in activity buffer at a final concentration of 200 μM. For SaClpP assays, the activity buffer was comprised of 100 mM NaCl and 100 mM HEPES at pH 7. BsClpP activity buffer (50 mM Tris-HCl, 25 mM MgCl2, 200 mM KCl, 2 mM DTT, pH 8) was used in BsClpP assays as well as in SaClpP experiments, where the buffer composition was supposed to lead to oligomeric breakdown of the SaClpP tetradecamer to allow testing the activity retaining effect of ClpP agonists. The fluorescence read-out was measured using a Tecan (Crailsheim, Germany) M200Pro plate reader (excitation/emission: 380/460 nm) every 30–60 s for 1 h. Enzyme velocity was determined by linear regression of the initial segment of the fluorescence-time plot in GraphPad Prism 5 (GraphPad Software, San Diego, CA, USA). All assays were performed in triplicate and repeated at least two times.

[2] = biological target: T2, BsClpP (monomer) (Bacillus subtilis, UniProt P80244); experiment: Peptidase activity of BsClpP, predominantly monomeric preparation; type: biochemical, B. subtilis
T2 construct: His-tag (C); made in house; host or cells: E. coli BL21 (DE3)
Procedure: as §2, with “BsClpP activity buffer (50 mM Tris-HCl, 25 mM MgCl2, 200 mM KCl, 2 mM DTT, pH 8) was used in BsClpP assays as well as in SaClpP experiments, where the buffer composition was supposed to lead to oligomeric breakdown of the SaClpP tetradecamer to allow testing the activity retaining effect of ClpP agonists.” left out, “All assays were performed in triplicate and repeated at least two times.” left out

[3] = biological target: T3, BsClpP tetradecamer (Bacillus subtilis, UniProt P80244); experiment: Peptidase activity of pre-purified tetradecameric BsClpP; type: biochemical, B. subtilis; details: read-out: EC50, BsClpP14 peptidase activity
T3 construct: His-tag (C); made in house; host or cells: E. coli BL21 (DE3)
Procedure: as §2, with “BsClpP activity buffer (50 mM Tris-HCl, 25 mM MgCl2, 200 mM KCl, 2 mM DTT, pH 8) was used in BsClpP assays as well as in SaClpP experiments, where the buffer composition was supposed to lead to oligomeric breakdown of the SaClpP tetradecamer to allow testing the activity retaining effect of ClpP agonists.” left out, “All assays were performed in triplicate and repeated at least two times.” left out

[4] = biological target: T4, BsClpP (Bacillus subtilis, UniProt P80244); experiment: BsClpP peptidase activity, preparation not specified; type: biochemical, B. subtilis
T4 construct: His-tag (C); made in house; host or cells: E. coli BL21 (DE3)
Procedure: as §2

[5] = biological target: B. subtilis ClpP (Bacillus subtilis) (UniProt P80244); experiment: SEC; BsClpP purified under specific buffer conditions that favor tetradecamer assembly; tetradecameric fraction collected from a gel filtration column (buffers in ref. 43)
[6] = biological target: T1, SaClpP; experiment: biochemical; parameters: Strep-tag (C); made in house; host or cells: E. coli BL21 (DE3)
Procedure: Casein degradation assays were performed analogous to peptide degradation assays. Fluorescein-labelled casein (FITC-casein) was employed at final concentrations of 20 μM in the respective activity buffers (see peptide degradation assay). 1 μL of a 100× stock solution of ADEP2 in DMSO was placed at the bottom of the wells followed by the addition of a 2× SaClpP or BsClpP enzyme solution (1 μM final concentration, unless noted otherwise). The mixture was incubated at 32 °C or 37 °C for 15 min and then the reaction was started by the addition of a 2× FITC-casein solution in the corresponding activity buffer. The fluorescence read-out was measured using a Tecan (Crailsheim, Germany) M200Pro plate reader employing an excitation wavelength of 485 nm and an emission wavelength of 535 nm. Enzyme velocity was acquired by linear regression of the initial segment of the fluorescence graph and plotted against ADEP2 concentration. All assays were performed in duplicate or triplicate.

[7] = biological target: T1, SaClpP; parameters: Strep-tag (C); made in house; host or cells: E. coli BL21 (DE3); details: ADEP2 vs natural product ADEP1; ref not given; cited from earlier work
Excerpt: Figure 3 Grafting of the hydrophobic tripeptide binding motifs onto the MccJ25 lasso peptide scaffold. (A) Schematic of the ClpP tetradecamer and the complete Clp protease complex, i.e., ClpP in concert with ClpX. The interaction between ClpP and the ClpX ATPase occurs between protruding flexible loops of ClpX, carrying the conserved tripeptide motif (L/I/V)-G-(F/L), and the H-pockets of ClpP. The H-pockets are located between two adjacent monomers of ClpP. In the ClpXP complexes of S. aureus and B. subtilis, which we used for our biochemical assays, the respective motif is IGF. (B) The IGF tr ...

[8] = biological target: T1, SaClpP; experiment: Analytical gel filtration, SaClpP oligomeric state; parameters: Strep-tag (C); made in house; host or cells: E. coli BL21 (DE3); details: Superdex 200, Tris buffer pH 8, representative experiment from three repetitions
[9] = biological target: T1, SaClpP; experiment: Peptide (Suc-LY-AMC) degradation by SaClpP in HEPES buffer pH 7; type: biochemical, S. aureus; parameters: Strep-tag (C); made in house; host or cells: E. coli BL21 (DE3); details: Figure 4A
Procedure: as §1
Peptide degradation assays were performed in black flat-bottom 96-well plates with a total reaction volume of 100 μL and reaction temperatures of 32 °C and 37 °C for SaClpP and BsClpP, respectively. Stock solutions of ADEP2 and MccJ25 WT or variants were dissolved in DMSO and pre-diluted to 100× of the final concentration. Accordingly, 1 μL of the respective stock solution was placed at the bottom of the wells. […] 50 μL of a 2× enzyme solution (final assay concentration: 1 μM) in activity buffer was added to the plate and incubated for 15 min at 32 °C and 37 °C for SaClpP and BsClpP activity assays, respectively. […] The fluorescence read-out was measured using a Tecan (Crailsheim, Germany) M200Pro plate reader (excitation/emission: 380/460 nm) every 30–60 s for 1 h. Enzyme velocity was determined by linear regression of the initial segment of the fluorescence-time plot in GraphPad Prism 5 (GraphPad Software, San Diego, CA, USA). […]

T2 sequence (P80244 whole entry): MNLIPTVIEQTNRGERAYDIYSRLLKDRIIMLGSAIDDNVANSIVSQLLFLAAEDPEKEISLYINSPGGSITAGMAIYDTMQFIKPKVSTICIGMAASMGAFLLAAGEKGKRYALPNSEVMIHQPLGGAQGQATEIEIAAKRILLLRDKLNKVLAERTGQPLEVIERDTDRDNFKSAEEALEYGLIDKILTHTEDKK
T4 sequence (P80244 whole entry): as above
T3 sequence (P80244 whole entry): as above

Compound: CC[C@H](C)[C@H](NC(=O)[C@@H](NC(=O)[C@H](Cc1ccccc1)NC(=O)[C@H](Cc1ccc(O)cc1)NC(=O)[C@@H]1CCC(=O)NCC(=O)NCC(=O)N[C@@H](C)C(=O)NCC(=O)N[C@@H](Cc2c[nH]cn2)C(=O)N[C@@H](C(C)C)C(=O)N2CCC[C@H]2C(=O)N1)C(C)C)C(=O)NCC(=O)N[C@@H](Cc1ccccc1)C(=O)N[C@H](C(=O)N1CCC[C@H]1C(=O)N[C@H](C(=O)N[C@@H](CO)C(=O)N[C@@H](Cc1ccccc1)C(=O)N[C@@H](Cc1ccc(O)cc1)C(=O)NCC(=O)O)[C@@H](C)CC)[C@@H](C)O [12IGF] (GGAGHVPEYFVIGFTPISFYG-OH; lactam N-8)
EC50 ([1]; 1 μM SaClpP, 200 μM Suc-Leu-Tyr-AMC, 15 min pre-incubation, fluorescence 380/460 nm, ± S.D., three independent experiments, read-out: EC50, stabilizing effect on SaClpP peptidase activity): 26 ± 3.32 µM | EC50 ([1]; effector concentration at half maximal stimulation of enzyme activity, Suc-Leu-Tyr-AMC, read-out: apparent affinity constant, stabilizing effect on SaClpP peptidase activity): ~26 µM and 26 µM | EC50 ([2]; 5 μM ADEP2, Tris pH 8, 37 °C, ± S.D., two separate experiments, read-out: EC50, BsClpP1 peptidase activity (+ADEP2)): 60.2 ± 3.78 µM | EC50 ([2]; with ADEP2 (Figure 5C), Tris pH 8, 37 °C, read-out: apparent affinity constant, BsClpP activation in the presence of ADEP2): 60 µM | EC50 [3]: 60.3 ± 12.1 µM | EC50 relative to ADEP ([4]; 12IGF EC50 in SaClpP and BsClpP peptidase assays vs EC50 values measured for ADEP): exceeded the EC50 values measured for ADEP by one to two orders of magnitude | EC50 ([4]; Figure 5C,D, with or without ADEP2 not specified, 37 °C): 60 µM

stoichiometry N [5]: 14
Compound: B. subtilis ClpP (from UniProt P80244 1-197) (enzyme)

Compound: C[C@@H]1C[C@H]2C(=O)OC[C@H](NC(=O)[C@H](Cc3cc(F)cc(F)c3)NC(=O)CCC3CCCCC3)C(=O)N3CCC[C@H]3C(=O)N(C)[C@@H](C)C(=O)N[C@@H](C)C(=O)N2C1 [ADEP2] ({Propanoyl(3-cHex)}-[Phe(3,5-F2)]SP[NMeA]A[Pro(4R-Me)]; ester 2-C)
EC50 [6]: 0.304 ± 0.179 µM | affinity for SaClpP [7]: increased affinity for SaClpP | SaClpP peptidase activity retained in the presence of ADEP2 ([1]; Figure 4A): a substantial extent of the original activity (observed in the favorable HEPES buffer at pH 7) was retained in the presence of ADEP2 | SaClpP tetradecamer integrity [8]: Inactivation by oligomeric breakdown in Tris buffer at pH 8 can be circumvented by the addition of ADEP2 | SaClpP peptidase activity enhancement [9]: enhanced weakly
